# Test results: patent US11234982B2, “Methods for treating ocular surface pain” (NOVARTIS AG, priority 2019, dated 2022)
# Where two headings read alike, the source gives them in different places.
# What was measured:
# [1] = system: postoperative ocular pain in patients undergoing photorefractive keratectomy (PRK) surgery; test: PRK study: visual analog scale (VAS) pain assessment; format: in vivo, human
# Experimental: The study was a proof of concept, double-masked, randomized, vehicle-controlled study of compound I administered as eye drops in addition to standard of care treatment in patients after PRK surgery. PRK surgery was performed as an outpatient procedure under topical anesthesia with removal of the corneal epithelium to expose the stroma for the laser ablation. Compound I dosing was as single eye drop of 2.5% (25 mg/ml, 0.925 mg/drop), administered four times daily (every six hours) in one eye from immediate post-op (time 0) to last dose at 72 hours.
# The study consisted of 2 treatment periods using a crossover design. Patients underwent PRK surgery on 2 separate occasions (periods), one eye at a time. Patients were randomized to receive either compound 1 or vehicle following procedure 1 and the alternate following procedure 2.
# Forty patients were randomized in a 1:1 ratio to two sequences: compound I during period 1, followed by vehicle in period 2, or vehicle during period 1 followed by compound I during period 2. Each patient was administered one drop four times daily for 72 hours following PRK surgery on their study eye (Day 1, Periods 1 and 2). The initial study eye was the non-dominant eye as established at screening and in agreement of the patient and the investigator. The patients returned for follow-up visits on Days 2, 3, 4 and 8 of Period 1 after surgery in the first eye, with optional daily visits to follow the patient until wound healing was complete. The second eye surgery was not performed if any complications were noticed.
# Patient subjective experience of pain was recorded using VAS, a numeric assessment of pain between 0 and 100, with 0 representing no pain, and 100 representing worst imaginable pain. […] Since it was important clinically to both decrease the maximum pain as well as the overall pain that the patient experiences during the immediate postoperative period, the two periods of 6 hours and up to 12 hours postoperatively, were evaluated as primary endpoints. All evaluable VAS data was collected using an ePRO, which was an electronic device (cell phone with software application), on which patients marked their pain levels at the appropriate time points.
# Rescue oral analgesics: It is not ethical to refuse pain control medication to patients postoperatively as part of a clinical trial. […] Because the use of oral rescue medication may be a potential confounder of the pain VAS evaluation, three approaches were used when analyzing pain VAS scores to account for the influence of pain meds (assuming 4 hours of rescue medication effect): (1) any recorded VAS score within 4 hours after use of rescue medication was considered missing; (2) all the recorded VAS scores was used; and (3) any recorded VAS scores within 4 hours after rescue medication use was imputed by the record taken prior to the rescue medication.
# [2] = PRK study: plasma pharmacokinetics of compound I; format: in vivo, human; settings: for Tmax: read-out: Tmax, Min, Max
# Experimental: Pharmacokinetic (PK) samples were collected at the time points defined in the visit schedule supra, with PK blood collection windows shown in Table 9.
# All blood samples (3 mL) were taken from the arm by either direct venipuncture or an indwelling catheter inserted in a forearm vein. After each tube of blood was drawn, it was immediately inverted gently 8-10 times to ensure the mixing of tube contents with anticoagulant (3 mL K2 EDTA). Prolonged sample contact with the rubber stopper was avoided and the tubes were placed upright in a test tube rack surrounded by wet ice until centrifugation.
# Within 30 minutes, the sample was centrifuged at about 5° C. for 10 minutes at approximately 2000 G (or the sample was placed on ice and centrifuged at room temperature). Immediately after centrifugation, the whole supernatant (approx. 1.5 mL) was transferred in the first 1.8 mL NUNC 2D barcoded cryovial. After mixing the plasma thoroughly, half of the plasma was transferred from the first cryovial to the second cryovial and the caps were secured. Appropriate PK cryolabels were attached to each cryovial and the labels were secured with clear tape. The cryovials were frozen immediately over dry ice then, kept frozen at ≤−20° C. until shipment to the central lab. The vials were shipped in biweekly batches.
# Compound I was quantified in plasma using a validated LC-MS/MS method; the lower limit of quantification (LLOQ) was 0.05 ng/mL. Concentrations were expressed in ng per mL units. When feasible, bandage contact lenses (BCL) exposed to study drug were collected and analyzed for residual drug exposure after treatment (LLOQ: 5.00 ng/mL in 0.55 mL of extraction fluid, or 2.75 ng/BCL). Concentrations below the LLOQ were reported as “zero” and missing data were labeled as such.
# The following PK parameters were determined as relevant using the actual recorded sampling times and non-compartmental method with Phoenix™ WinNonlin® (Version 6.4): Cmax, Tmax, AUClast (calculated), Clast and Tlast from the plasma concentration-time data. Pre-dose concentrations were determined by inspection at nominal 0, 24 and 72 hours. The linear trapezoidal rule was used for AUClast calculation. No PK parameters were calculated from the bandage contact lenses compound I concentration data.
# [3] = 2.5% four times daily after PRK
# [4] = 2.5% four times daily after PRK, VAS 0-100
# [5] = 2.5% four times daily after PRK, VAS 0-100, ORM-adjusted, N = 30
# [6] = across 4 days of repeated QID dosing
# [7] = plasma, Day 1 (first dose), 2.5% topical ocular
# [8] = plasma, Day 1 (first dose), 2.5% topical ocular, N 34
# [9] = plasma, Day 4 (13th dose), 2.5% four times daily
compound,measurement,setting,value
"CC(C)c1nc2cc(O)ccc2c(=O)n1-c1ccc(C#N)cc1 [Compound I, 4-(7-hydroxy-2-isopropyl-4-oxo-4H-quinazolin-3-yl)-benzonitrile]",VAS 0-12 hours post-operatively: % Diff compound I vs. Vehicle,[1]; [3],−22%
same,VAS at 6 hours post-operatively: % Diff compound I vs. Vehicle,[1]; [3],−25%
same,VAS 0-12 hours post-operatively: Diff (compound I-Vehicle) of model based means,[1]; [4],−8.56
same,VAS at 6 hours post-operatively: Diff (compound I-Vehicle) of model based means,[1]; [4],−11.1
same,Model estimated mean VAS pain severity score 0-12 hours post-operatively,[1]; [5],30.90
same,Model estimated mean VAS pain severity score at 6-hours post-operatively,[1]; [5],34.63
same,Mean change in VAS score one-half hour after instillation of eye drop,[1]; 6.5 hours vs 6 hours post-operative,−3.1
same,Mean change in VAS score one-half hour after instillation of eye drop,[1]; 18.5 hours vs 18 hours post-operative,2.8
same,Mean change in VAS score one-half hour after instillation of eye drop,[1]; 24.5 hours vs 24 hours post-operative,1.3
same,VAS pain severity scores vs Vehicle up to 36 hours after surgery,[1]; all scheduled time points,lower for compound I than Vehicle at all scheduled time points up to and including 36 hours after surgery
same,Difference between compound I and Vehicle VAS scores from 36 to 72 hours after PRK surgery,[1]; no statistically significant difference at p 0.10,only marginally different
same,VAS pain severity scores vs Vehicle during the first 18 hours after surgery,"[1]; p-value threshold 0.10, 6 out of the 7 time points, starting with hour 1",statistically significantly lower VAS pain severity scores
same,Mean AUClast increase over the 4 days (Day 4 vs Day 1),[2]; 2.5% 4 times daily,6.9 fold
same,Mean Cmax after 13th dose on Day 4 relative to first dose on Day 1,[2]; 2.5% 4 times daily,5.3 fold
same,"AUClast, range",[2]; [6],0.261 to 14.5 ng·h/mL
same,"Observed Cmax, range",[2]; [6],0.195 to 7.56 ng/mL
same,Median plasma Tmax,[2]; after either single (first dose) or repeated 4 times daily topical ocular administration,approximately 0.5 hours
same,Cmax,"[2]; human, plasma, topical, 2.5 % (four times daily), across 4 days of repeated QID dosing, read-out: Observed Cmax, range",0.195 to 7.56 ng/mL
same,Tmax,"[2]; human, topical or ocular, plasma, Day 1 (first dose), 2.5% topical ocular",10 to 120 min
same,Tmax,"[2]; human, topical, plasma, Day 4 (13th dose), 2.5% four times daily",0 to 125 min
same,"AUClast, Median",[2]; [7],0.569 ng·h/mL
same,"Cmax, Median",[2]; [7],0.375 ng/mL
same,"Tmax, Median",[2]; [7],27.5 min
same,"AUClast, Mean (SD)",[2]; [8],0.638 ng·h/mL
same,"Cmax, Mean (SD)",[2]; [8],0.454 ng/mL
same,"AUClast, Median",[2]; [9],3.42 ng·h/mL
same,"Cmax, Median",[2]; [9],2.07 ng/mL
same,"Tmax, Median",[2]; [9],28 min
same,"AUClast, Mean (SD)","[2]; plasma, Day 4 (13th dose), 2.5% four times daily, N 31",4.38 ng·h/mL
same,"Cmax, Mean (SD)","[2]; plasma, Day 4 (13th dose), 2.5% four times daily, N 33",2.40 ng/mL
same,Trough mean plasma concentration (end of 6-hour dose interval),[2]; prior to the 5th dose on Day 2 (24 hr post 1st dose),1.25 ng/mL
same,Trough mean plasma concentration (end of 6-hour dose interval),[2]; prior to the 13th dose on Day 4 (72 hr post 1st dose),1.99 ng/mL
